This is an account of results in PubChem BioAssay (NCI).

Among the test systems are MDA-N; DLD-1 colon; DMS 114 small cell lung; KM20L2 colon; M19-MEL melanoma; SNB-78 CNS; XF 498 CNS; RXF-631 renal; HOP-18 NSCLC.
Common to all, as to assay: NCI tumour cell line growth inhibition, 48 h

SMILES strings stand for the structures.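 1) Cells in 96-well plates. 2) Compound, 48 h, 5 concentrations. 3) Linear interpolation between surrounding doses. 4) Unreached endpoint = highest concentration. GI50: concentration for 50% inhibition of growth. TGI: concentration producing complete growth inhibition.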

In the experiment on MDA-N, `COC(=O)c1n[nH]c(C)c1N=NN(C)CCC#N` showed a TGI of more than 100 µM.
Same read-out and setting: the value for `CC(C)(Br)C(=O)N1CCN(C(c2ccccc2)c2ccccc2)CC1` was more than 100 µM.
In the case of `Cc1cc(NCCCCCCCCNc2cc(C)nc3cc(N)ccc23)c2ccc(N)cc2n1`, the TGI is more than 100 µM with DLD-1 colon, 30.8 µM in the experiment with DMS 114 small cell lung, 48.8 µM in the experiment on KM20L2 colon and 45.3 µM with M19-MEL melanoma.
As to `CC(C)c1[nH]nc(C(N)=O)c1N=NN(C)C`, the TGI in the experiment on MDA-N is more than 100 µM.
For `N#CCCN(c1ccc(C=Nc2ccccc2)cc1)S(=O)(=O)c1ccccc1`, the TGI in the experiment on DLD-1 colon, in the experiment on DMS 114 small cell lung, in the experiment on M19-MEL melanoma, in the experiment on SNB-78 CNS and in the experiment on XF 498 CNS was more than 100 µM each time.
For the compound `Cc1nc(-n2nc(-c3ccccc3)cc2-c2ccccc2)sc1C(=O)/C=C/c1ccc(/C=C/C(=O)c2sc(-n3nc(-c4ccccc4)cc3-c3ccccc3)nc2C)cc1`, the TGI in the experiment on DLD-1 colon is 44.8 µM; in the experiment on DMS 114 small cell lung it was more than 100 µM; in the experiment on KM20L2 colon, 36.4 µM; in the experiment on M19-MEL melanoma, 63 µM; in the experiment with RXF-631 renal, 78.9 µM; in the experiment on SNB-78 CNS, 99.8 µM. The compound further displayed a TGI in the experiment on XF 498 CNS of 41.4 µM.
Turning to `O=C1CSCc2sccc21`, the TGI in the experiment with MDA-N is more than 100 µM.
As for `C[C@@H](NC1CCCC[C@H]1O)c1ccccc1` (stereo partly specified), the TGI with DLD-1 colon, with HOP-18 NSCLC, with KM20L2 colon, with M19-MEL melanoma, in the experiment with SNB-78 CNS and in the experiment with XF 498 CNS was more than 100 µM throughout.
Compound `COc1ccc2c(c1OC)C[C@@H]1c3c(cc4c(c3-2)OCO4)CCN1C` yielded a TGI in the experiment on MDA-N of more than 100 µM.
Take `O=C(NCCCCCCCCCCCCNC(=O)c1cccc2ccccc12)c1cccc2ccccc12`: the TGI in the experiment on DLD-1 colon, with DMS 114 small cell lung, in the experiment on HOP-18 NSCLC, in the experiment with KM20L2 colon, in the experiment on M19-MEL melanoma and in the experiment on RXF-631 renal was more than 100 µM each time. For the same compound, the TGI was more than 82.3 µM with SNB-78 CNS and more than 75.8 µM in the experiment on XF 498 CNS.
`CC(=O)O[C@H]1C(=O)[C@@]2(C)C(C(OC(=O)c3ccccc3)[C@]3(O)C[C@H](OC(=O)C(OC(=O)CCCC(=O)NCCCN(C)C)C(NC(=O)c4ccccc4)c4ccccc4)C(C)=C1C3(C)C)C1(OC(C)=O)COC1C[C@@H]2O` (stereo partly specified): the TGI is more than 40.9 µM with DLD-1 colon; less than 0.01 µM in the experiment on DMS 114 small cell lung; 35 µM in the experiment on HOP-18 NSCLC; less than 0.01 µM with KM20L2 colon; 17.3 µM with M19-MEL melanoma; less than 0.01 µM with MDA-N. Moreover, the values for the TGI in the experiment with RXF-631 renal, in the experiment on SNB-78 CNS and in the experiment with XF 498 CNS were more than 100 µM, 96.8 µM and less than 0.0171 µM, respectively.
`CN1c2ccccc2N(C(=O)c2ccc([N+](=O)[O-])cc2)C(CC(=O)O)c2cccn21` (stereo unspecified): the TGI with DLD-1 colon, with DMS 114 small cell lung, in the experiment on KM20L2 colon, in the experiment on M19-MEL melanoma, in the experiment with SNB-78 CNS and in the experiment with XF 498 CNS was more than 100 µM each time.
For `Cn1cc(C(=O)c2ccccc2)c2ccccc2c1=O`, the TGI in the experiment with DLD-1 colon, in the experiment on DMS 114 small cell lung, in the experiment with M19-MEL melanoma and with XF 498 CNS was more than 100 µM in each case.
In the experiment with MDA-N, `CC1=CC(=O)C2=C(C)CCC3C(C)C(=O)OC3C12` (stereo unspecified) came in with a TGI of more than 100 µM.
For `Nc1ncnc2c1ncn2[C@]1(CO)C=C(CO)C(O)C1O` (stereo partly specified), the TGI with DLD-1 colon, with DMS 114 small cell lung, in the experiment with HOP-18 NSCLC, with KM20L2 colon, in the experiment with RXF-631 renal and in the experiment on SNB-78 CNS was more than 100 µM each time. Moreover, the TGI in the experiment with XF 498 CNS was more than 100 µM.
With `CC(C)(CN1CCCCC1)C(=O)/C=C/c1ccc(/C=C/C(=O)C(C)(C)CN2CCCCC2)cc1`, the TGI worked out at 0.323 µM in the experiment on DLD-1 colon; 1.95 µM in the experiment with DMS 114 small cell lung; 2.57 µM in the experiment with HOP-18 NSCLC; 1.65 µM in the experiment on KM20L2 colon; 2.35 µM with M19-MEL melanoma; 0.401 µM in the experiment on MDA-N. For the same compound, the TGI worked out at 7.17 µM in the experiment on SNB-78 CNS and 1.28 µM with XF 498 CNS.
`c1ccc2sc(SCCSc3nc4ccccc4s3)nc2c1` yielded a TGI in the experiment with MDA-N of more than 100 µM.
In the case of `O=C(N/C(=C\c1ccc(Cl)cc1)c1nc2ccccc2[nH]1)c1ccccc1`, the TGI was determined as 52.2 µM with DLD-1 colon; 50.3 µM in the experiment on HOP-18 NSCLC; 30.8 µM in the experiment on KM20L2 colon; 34.7 µM in the experiment on M19-MEL melanoma; 85.4 µM with SNB-78 CNS; 36.9 µM in the experiment on XF 498 CNS.
On to `COc1ccc(/C=C(/C#N)C(N)=O)c(OC)c1`, for which the TGI with MDA-N was found to be 52.6 µM.
With `COc1ccc(C/C(=N/O)C(=O)NCCc2cc(Br)c(OCCCN(C)C)c(Br)c2)cc1Br`, the TGI is 25.3 µM with DLD-1 colon; 36.5 µM in the experiment with DMS 114 small cell lung; 0.0986 µM in the experiment on HOP-18 NSCLC; 40.6 µM in the experiment on KM20L2 colon; 33.8 µM with M19-MEL melanoma; 68.4 µM in the experiment on SNB-78 CNS. The TGI in the experiment with XF 498 CNS is 25.6 µM.
With `COc1cc(Nc2nc3cc(N)cc(N)c3nc2-c2ccccc2)cc(OC)c1OC`, in the experiment with MDA-N, the GI50 is 10.5 µM and the TGI stood at 31.3 µM.
Regarding `CC(C)C1=CC(=O)C(C)(C2C(O)CC3(C)C4CC=C5C(CCC(OC6OC(CO)C(O)C(O)C6OC6OC(C)C(O)C(O)C6O)C5(C)C)C4(C)C(=O)CC23C)O1` (stereo unspecified), the TGI in the experiment on MDA-N is more than 100 µM.
On to `COc1cc2c(cc1OC)[C@@H](Nc1ccc(C#N)cc1)C1COC(=O)[C@@H]1C2c1cc(OC)c(O)c(OC)c1` (stereo partly specified), for which the TGI is 9.29 µM in the experiment with DLD-1 colon; 95 µM in the experiment on HOP-18 NSCLC; 95 µM with KM20L2 colon; 95 µM in the experiment on M19-MEL melanoma; more than 100 µM in the experiment with MDA-N; 95 µM in the experiment on SNB-78 CNS.
For `N#Cc1c(-c2ccc(Cl)c(Cl)c2)c(-c2ccc(Cl)c(Cl)c2)nn(CC(=O)O)c1=O`, the TGI in the experiment on DLD-1 colon was more than 100 µM; in the experiment on HOP-18 NSCLC, more than 100 µM; with KM20L2 colon, 56.8 µM; in the experiment on M19-MEL melanoma, more than 100 µM; with RXF-631 renal it was more than 100 µM; with SNB-78 CNS, more than 100 µM. Moreover, in the experiment on XF 498 CNS, the TGI is 98.4 µM.
